{"source": "patent US8268755B2", "about": "“Oxime ether derivative and fungicide for agricultural and horticultural use” (Nippon Soda Co., Ltd., priority 2007, dated 2012)"}
{"smiles": "COC(=O)NOc1cc(/C(C)=N/OCc2cccc(C(F)(F)F)n2)ccc1Cl", "note": "[Compound 1446, methyl N-(2-chloro-5-{1-[6-trifluoromethylpyridin-2-ylmethoxyimino]ethyl}phenoxy) carbamate]", "values": [{"measurement": "melting point", "value": "100 to 101", "unit": "°C"}]}
